From PubChem BioAssay AID256 (DTP/NCI, 2004)
Inconclusive results and toxic doses are left out. Rule for the calls: active = survival T/C of 150% or more; inactive = T/C below 125% in these data.

Tested on: CD2F1 mice, L1210 leukemia ip, survival T/C
Assay: NCI In Vivo Anticancer Drug Screen. Data for tumor model L1210 Leukemia (intraperitoneal) in CD2F1 (CDF1) mice
Conditions: higher = longer survival
Procedure, shortened: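 Tumor-bearing mice (transplanted tumor) were split into treated and vehicle control groups, and the measured endpoint of each treated group was divided by that of its vehicle controls.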

[1] = endpoint: mean survival time, dose: 50.0 mg/kg/injection, schedule: Q01DX009 (ip), vehicle: saline
[2] = endpoint: mean survival time, dose: 100.0 mg/kg/injection, schedule: Q01DX001 (ip), vehicle: saline with Tween-80
[3] = endpoint: mean survival time, dose: 100.0 mg/kg/injection, schedule: Q01DX009 (ip), vehicle: saline
[4] = endpoint: mean survival time, dose: 100.0 mg/kg/injection, schedule: Q04DX003 (ip), vehicle: saline with Tween-80
[5] = endpoint: mean survival time, dose: 200.0 mg/kg/injection, schedule: Q01DX001 (ip), vehicle: saline with Tween-80
[6] = endpoint: mean survival time, dose: 200.0 mg/kg/injection, schedule: Q01DX009 (ip), vehicle: saline
[7] = endpoint: mean survival time, dose: 200.0 mg/kg/injection, schedule: Q04DX003 (ip), vehicle: saline with Tween-80
[8] = endpoint: mean survival time, dose: 400.0 mg/kg/injection, schedule: Q01DX001 (ip), vehicle: saline with Tween-80
[9] = endpoint: mean survival time, dose: 400.0 mg/kg/injection, schedule: Q04DX003 (ip), vehicle: saline with Tween-80
[10] = endpoint: mean survival time, dose: 100.0 mg/kg/injection, schedule: Q01DX009 (ip), vehicle: saline with Tween-80
[11] = endpoint: mean survival time, dose: 200.0 mg/kg/injection, schedule: Q01DX009 (ip), vehicle: saline with Tween-80
[12] = endpoint: mean survival time, dose: 400.0 mg/kg/injection, schedule: Q01DX009 (ip), vehicle: saline with Tween-80
[13] = endpoint: mean survival time, dose: 50.0 mg/kg/injection, schedule: Q04DX003 (ip), vehicle: saline
[14] = endpoint: mean survival time, dose: 100.0 mg/kg/injection, schedule: Q04DX003 (ip), vehicle: saline
[15] = endpoint: mean survival time, dose: 200.0 mg/kg/injection, schedule: Q04DX003 (ip), vehicle: saline
[16] = endpoint: mean survival time, dose: 100.0 mg/kg/injection, schedule: Q01DX001 (ip), vehicle: saline
[17] = endpoint: mean survival time, dose: 200.0 mg/kg/injection, schedule: Q01DX001 (ip), vehicle: saline
[18] = endpoint: mean survival time, dose: 400.0 mg/kg/injection, schedule: Q01DX001 (ip), vehicle: saline
[19] = endpoint: mean survival time, dose: 6.25 mg/kg/injection, schedule: Q01DX009 (ip), vehicle: saline with Tween-80
[20] = endpoint: mean survival time, dose: 12.5 mg/kg/injection, schedule: Q01DX009 (ip), vehicle: saline with Tween-80
[21] = endpoint: mean survival time, dose: 25.0 mg/kg/injection, schedule: Q04DX002 (ip), vehicle: saline with Tween-80
[22] = endpoint: mean survival time, dose: 50.0 mg/kg/injection, schedule: Q04DX002 (ip), vehicle: saline with Tween-80
[23] = endpoint: mean survival time, dose: 100.0 mg/kg/injection, schedule: Q04DX002 (ip), vehicle: saline with Tween-80

Measured: T/C

O=C1c2ccccc2C(=O)c2c(O)ccc(O)c21
inactive: [1] 106 % of control | [2] 88 % of control | [3] 97 % of control | [4] 94 % of control | [5] 91 % of control | [6] 109 % of control | [7] 102 % of control | [8] 86 % of control | [9] 103 % of control

COC(=O)/C=C/c1ccc(OC(=O)c2ccccc2)cc1
inactive: [10] 95 % of control | [11] 96 % of control | [12] 98 % of control

O=C(O)C1C2OC(C(Br)C2Br)C1C(=O)O (stereo not drawn)
inactive: [1] 102 % of control | [3] 104 % of control

CN(C)c1ccccc1C1=CCCCC1
inactive: [13] 96 % of control | [14] 98 % of control | [15] 104 % of control

O=c1c(O)c(-c2ccc(O)c(O)c2)oc2cc(O)cc(O)c12
inactive: [16] 100 % of control | [17] 100 % of control | [11] 90 % of control | [18] 100 % of control | [12] 96 % of control | endpoint: mean survival time, dose: 800.0 mg/kg/injection, schedule: Q01DX009 (ip), vehicle: saline with Tween-80 87 % of control

C[S+](C)C
inactive: endpoint: mean survival time, dose: 25.0 mg/kg/injection, schedule: Q01DX009 (ip), vehicle: saline 101 % of control | [1] 100 % of control | [3] 104 % of control | [14] 101 % of control | [6] 98 % of control | [15] 101 % of control | endpoint: mean survival time, dose: 400.0 mg/kg/injection, schedule: Q01DX009 (ip), vehicle: saline 102 % of control | endpoint: mean survival time, dose: 400.0 mg/kg/injection, schedule: Q04DX003 (ip), vehicle: saline 104 % of control

O=c1ccn(C2CC3[O][Sn]([c]4ccccc4)([c]4ccccc4)[O]CC3O2)c(=O)[nH]1 (stereo not drawn)
inactive: endpoint: mean survival time, dose: 6.25 mg/kg/injection, schedule: Q01DX005 (ip), vehicle: distilled water + Tween-80 104 % of control | endpoint: mean survival time, dose: 12.5 mg/kg/injection, schedule: Q01DX005 (ip), vehicle: distilled water + Tween-80 98 % of control | endpoint: mean survival time, dose: 25.0 mg/kg/injection, schedule: Q01DX005 (ip), vehicle: distilled water + Tween-80 108 % of control | endpoint: mean survival time, dose: 100.0 mg/kg/injection, schedule: Q01DX005 (ip), vehicle: distilled water + Tween-80 90 % of control

CN(C)/C=N/NC(=O)c1ccccc1O
inactive: [4] 98 % of control | [7] 100 % of control | [9] 100 % of control

COc1ccc(COC(=O)Nc2cccc3ccccc23)cc1
inactive: endpoint: mean survival time, dose: 75.0 mg/kg/injection, schedule: Q04DX002 (ip), vehicle: saline with Tween-80 104 % of control | endpoint: mean survival time, dose: 150.0 mg/kg/injection, schedule: Q04DX002 (ip), vehicle: saline with Tween-80 104 % of control | endpoint: mean survival time, dose: 300.0 mg/kg/injection, schedule: Q04DX002 (ip), vehicle: saline with Tween-80 100 % of control

CC1CCC(NC(=O)NCCCl)CC1 (stereo not drawn)
inactive: [2] 98 % of control | [5] 109 % of control | [8] 101 % of control

BrN1CCCCC1
inactive: endpoint: mean survival time, dose: 100.0 mg/kg/injection, schedule: Q04DX002 (ip), vehicle: saline 103 % of control | endpoint: mean survival time, dose: 200.0 mg/kg/injection, schedule: Q04DX002 (ip), vehicle: saline 122 % of control | endpoint: mean survival time, dose: 400.0 mg/kg/injection, schedule: Q04DX002 (ip), vehicle: saline 103 % of control

N=c1cc([N+](=O)[O-])ccn1O
inactive: [16] 97 % of control | [17] 97 % of control | [18] 105 % of control

CCOC(=O)c1c[nH]c2ccc3c(nc(C)n3C)c2c1=O
inactive: endpoint: median survival time, dose: 25.0 mg/kg/injection, schedule: Q01DX005 (ip), vehicle: Klucel (hydroxypropylcellulose) (HPC) 98 % of control | endpoint: median survival time, dose: 50.0 mg/kg/injection, schedule: Q01DX005 (ip), vehicle: Klucel (hydroxypropylcellulose) (HPC) 100 % of control | endpoint: median survival time, dose: 100.0 mg/kg/injection, schedule: Q01DX005 (ip), vehicle: Klucel (hydroxypropylcellulose) (HPC) 108 % of control | endpoint: median survival time, dose: 200.0 mg/kg/injection, schedule: Q01DX005 (ip), vehicle: Klucel (hydroxypropylcellulose) (HPC) 112 % of control

Nc1ccc2scnc2c1
inactive: [4] 108 % of control | [7] 96 % of control | [9] 101 % of control

CCN(CC)CC(O)CNc1cc(C)nc(/N=C(\N)Nc2ccc(Cl)c(Cl)c2)n1 (stereo not drawn)
inactive: [19] 98 % of control | [20] 104 % of control | endpoint: mean survival time, dose: 25.0 mg/kg/injection, schedule: Q01DX009 (ip), vehicle: saline with Tween-80 106 % of control

O=C1c2cc(Cl)ccc2-c2c(Cl)cc(Cl)cc21
inactive: endpoint: mean survival time, dose: 50.0 mg/kg/injection, schedule: Q01DX009 (ip), vehicle: saline with Tween-80 92 % of control | [10] 101 % of control | [11] 89 % of control

CCOC(=O)C1CC1C#N (stereo not drawn)
inactive: [4] 102 % of control | [7] 98 % of control | [9] 97 % of control

NC(CCCCNCC(CNCCCCC(N)C(=O)O)C(=O)O)C(=O)O (stereo not drawn)
inactive: [21] 105 % of control | [22] 98 % of control | [23] 94 % of control

CC(=O)OCC(=O)[C@@]1(O)CC[C@H]2[C@@H]3CCC4=CC(=O)C=C[C@]4(C)[C@@]3(F)[C@@H](O)C[C@@]21C
inactive: endpoint: mean survival time, dose: 12.5 mg/kg/injection, schedule: Q04DX003 (ip), vehicle: saline 104 % of control | endpoint: mean survival time, dose: 25.0 mg/kg/injection, schedule: Q04DX003 (ip), vehicle: saline 104 % of control | [13] 107 % of control

O=C(O)COc1ccc([N+](=O)[O-])cc1
inactive: [10] 101 % of control | [11] 94 % of control | [12] 101 % of control

CC(=O)c1ccc(N=NC2C(=O)N(c3ccccc3)N=C2C)cc1 (stereo not drawn)
inactive: [11] 87 % of control | [12] 95 % of control

C[n+]1nc(-c2ccccc2)oc1-c1ccccc1
inactive: [21] 100 % of control | [22] 100 % of control | [23] 108 % of control | endpoint: mean survival time, dose: 200.0 mg/kg/injection, schedule: Q04DX002 (ip), vehicle: saline with Tween-80 106 % of control

CC(=O)CC(C)=O.CC(=O)CC(C)=O.CC(=O)CC(C)=O.[Fe]
inactive: [19] 93 % of control | [20] 97 % of control | endpoint: mean survival time, dose: 12.5 mg/kg/injection, schedule: Q04DX003 (ip), vehicle: saline with Tween-80 102 % of control | endpoint: mean survival time, dose: 25.0 mg/kg/injection, schedule: Q04DX003 (ip), vehicle: saline with Tween-80 98 % of control

C=C(CC)C1(C)C(=O)NC(=O)NC1=O
inactive: endpoint: mean survival time, dose: 75.0 mg/kg/injection, schedule: Q01DX001 (ip), vehicle: saline 95 % of control | endpoint: mean survival time, dose: 150.0 mg/kg/injection, schedule: Q01DX001 (ip), vehicle: saline 97 % of control | endpoint: mean survival time, dose: 300.0 mg/kg/injection, schedule: Q01DX001 (ip), vehicle: saline 101 % of control

CCCCCCCCCCCCCCCCC1CCCC1C1CCCC1 (stereo not drawn)
inactive: endpoint: mean survival time, dose: 100.0 mg/kg/injection, schedule: Q01DX001 (ip), vehicle: saline sonified 102 % of control | endpoint: mean survival time, dose: 200.0 mg/kg/injection, schedule: Q01DX001 (ip), vehicle: saline sonified 101 % of control | endpoint: mean survival time, dose: 400.0 mg/kg/injection, schedule: Q01DX001 (ip), vehicle: saline sonified 96 % of control

Cc1cc(C)cc(C(C)C)c1
inactive: [10] 98 % of control | [11] 101 % of control
